Measured values from PubChem BioAssay AID330 (DTP/NCI, 2004).
Values joined by “and” are separate entries in the source; they are usually repeats but may differ in a detail not shown here. Equal entries are not always repeated. Inconclusive results and toxic doses are left out.

Tested on: P388 leukemia ip, CD2F1 mice, survival T/C
Assay: NCI In Vivo Anticancer Drug Screen. Data for tumor model P388 Leukemia (intraperitoneal) in CD2F1 (CDF1) mice
Conditions: endpoint: median survival time, higher = longer survival
Method in brief: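 Mice carrying the transplanted tumor received test compound or vehicle. Survival was recorded in each group, and the value is the treated-group measurement divided by that of the vehicle-treated control group.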

[1] = dose: 60.0 mg/kg/injection, schedule: Q01DX005 (ip), vehicle: saline with Tween-80
[2] = dose: 120.0 mg/kg/injection, schedule: Q01DX005 (ip), vehicle: saline with Tween-80
[3] = dose: 240.0 mg/kg/injection, schedule: Q01DX005 (ip), vehicle: saline with Tween-80
[4] = dose: 100.0 mg/kg/injection, schedule: Q04DX003 (ip), vehicle: Klucel (hydroxypropylcellulose) (HPC)
[5] = dose: 200.0 mg/kg/injection, schedule: Q04DX003 (ip), vehicle: Klucel (hydroxypropylcellulose) (HPC)
[6] = dose: 400.0 mg/kg/injection, schedule: Q04DX003 (ip), vehicle: Klucel (hydroxypropylcellulose) (HPC)
[7] = dose: 50.0 mg/kg/injection, schedule: Q01DX009 (ip), vehicle: saline with Tween-80
[8] = dose: 100.0 mg/kg/injection, schedule: Q01DX009 (ip), vehicle: saline with Tween-80
[9] = dose: 200.0 mg/kg/injection, schedule: Q01DX009 (ip), vehicle: saline with Tween-80
[10] = dose: 50.0 mg/kg/injection, schedule: Q01DX005 (ip), vehicle: saline with Tween-80
[11] = dose: 100.0 mg/kg/injection, schedule: Q01DX005 (ip), vehicle: saline with Tween-80
[12] = dose: 25.0 mg/kg/injection, schedule: Q01DX009 (ip), vehicle: saline
[13] = dose: 50.0 mg/kg/injection, schedule: Q01DX009 (ip), vehicle: saline
[14] = dose: 50.0 mg/kg/injection, schedule: Q01DX005 (ip), vehicle: Klucel (hydroxypropylcellulose) (HPC)
[15] = dose: 100.0 mg/kg/injection, schedule: Q01DX005 (ip), vehicle: Klucel (hydroxypropylcellulose) (HPC)
[16] = dose: 200.0 mg/kg/injection, schedule: Q01DX005 (ip), vehicle: Klucel (hydroxypropylcellulose) (HPC)
[17] = dose: 200.0 mg/kg/injection, schedule: Q01DX005 (ip), vehicle: saline with Tween-80
[18] = dose: 25.0 mg/kg/injection, schedule: Q01DX009 (ip), vehicle: saline with Tween-80
[19] = dose: 6.25 mg/kg/injection, schedule: Q01DX005 (ip), vehicle: saline with Tween-80
[20] = dose: 12.5 mg/kg/injection, schedule: Q01DX005 (ip), vehicle: saline with Tween-80
[21] = dose: 50.0 mg/kg/injection, schedule: Q01DX009 (ip), vehicle: Klucel (hydroxypropylcellulose) (HPC)
[22] = dose: 100.0 mg/kg/injection, schedule: Q01DX009 (ip), vehicle: Klucel (hydroxypropylcellulose) (HPC)
[23] = dose: 100.0 mg/kg/injection, schedule: Q01DX009 (ip), vehicle: saline
[24] = dose: 200.0 mg/kg/injection, schedule: Q01DX009 (ip), vehicle: saline

SMILES: CCOC(=O)C1CCC(=O)N1Cc1c[nH]c2ccccc12 (stereo not drawn)
- T/C [1]: 92 % of control
- T/C [2]: 94 % of control
- T/C [3]: 94 % of control

SMILES: CCCCCCCCCCCCCCCCCCON
- T/C [4]: 97 % of control
- T/C [5]: 92 % of control
- T/C [6]: 94 % of control

SMILES: O=C(NC(=NC(=Nc1ccc([N+](=O)[O-])cc1)c1ccccc1)c1ccccc1)c1ccccc1
- T/C [7]: 93 % of control
- T/C [8]: 99 % of control
- T/C [9]: 90 % of control

SMILES: Cc1ccc(CNc2cc(C)ccn2)cc1
- T/C (dose: 50.0 mg/kg/injection, schedule: Q01DX009 (ip), vehicle: other): 109 % of control
- T/C (dose: 100.0 mg/kg/injection, schedule: Q01DX009 (ip), vehicle: other): 109 % of control

SMILES: CCCCCCCCCCCCC(O)CCC1CCCCN1 (stereo not drawn)
- T/C (dose: 50.0 mg/kg/injection, schedule: Q01DX005 (ip), vehicle: saline): 102 % of control
- T/C (dose: 100.0 mg/kg/injection, schedule: Q01DX005 (ip), vehicle: saline): 105 % of control

SMILES: COc1c(OP2(=S)OCC(C)(C)CO2)cnn(C2CCCCC2)c1=O
- T/C [10]: 89 % of control
- T/C [11]: 88 % of control

SMILES: CC(=O)CC(=O)c1ccccc1.CC(=O)CC(=O)c1ccccc1.[CH3][Sn][CH3]
- T/C (dose: 100.0 mg/kg/injection, schedule: Q01DX001 (ip), vehicle: Klucel (hydroxypropylcellulose) (HPC)): 95 % of control
- T/C (dose: 200.0 mg/kg/injection, schedule: Q01DX001 (ip), vehicle: Klucel (hydroxypropylcellulose) (HPC)): 99 % of control
- T/C (dose: 400.0 mg/kg/injection, schedule: Q01DX001 (ip), vehicle: Klucel (hydroxypropylcellulose) (HPC)): 96 % of control

SMILES: C1CCN(CCCCN2CCCCC2)CC1
- T/C [12]: 93 % of control
- T/C [13]: 88 % of control

SMILES: CC1CCCC(CC2CCCC[N-]2)[N-]1.CC1CCCC(CC2CCCC[N-]2)[N-]1.[Ni+2].[O-][Cl+3]([O-])([O-])O (stereo not drawn)
- T/C (dose: 25.0 mg/kg/injection, schedule: Q01DX001 (ip), vehicle: saline): 95 % of control
- T/C (dose: 50.0 mg/kg/injection, schedule: Q01DX001 (ip), vehicle: saline): 94 % of control
- T/C (dose: 100.0 mg/kg/injection, schedule: Q01DX001 (ip), vehicle: saline): 108 % of control and 95 % of control

SMILES: ClCCN(CCCl)c1ccc(N=Nc2cccc(Cl)c2Cl)cc1
- T/C (dose: 150.0 mg/kg/injection, schedule: Q04DX003 (ip), vehicle: Klucel (hydroxypropylcellulose) (HPC)): 99 % of control
- T/C (dose: 300.0 mg/kg/injection, schedule: Q04DX003 (ip), vehicle: Klucel (hydroxypropylcellulose) (HPC)): 95 % of control

SMILES: CC(C)(C)OC(=O)CN1C(=O)CCC1=O
- T/C [14]: 99 % of control
- T/C [15]: 100 % of control
- T/C [16]: 106 % of control

SMILES: Clc1ccc2c(NCC3CCCN4CCCCC34)ccnc2c1 (stereo not drawn)
- T/C [14]: 104 % of control
- T/C [15]: 101 % of control

SMILES: Cc1c(C)c(C)c(S(=O)(=O)NCCNS(=O)(=O)c2c(C)c(C)c(C)c(C)c2C)c(C)c1C
- T/C [14]: 103 % of control
- T/C [15]: 94 % of control
- T/C [16]: 93 % of control

SMILES: CSc1nnc(N)s1
- T/C [7]: 106 % of control
- T/C [8]: 93 % of control
- T/C [9]: 100 % of control

SMILES: Cc1cc(N)c(C)c2c1[nH]c1ccc(Br)cc12
- T/C [10]: 94 % of control
- T/C [11]: 93 % of control
- T/C [17]: 89 % of control

SMILES: O=C(NCc1ccco1)Nc1ccccc1C(F)(F)F
- T/C [1]: 94 % of control
- T/C [2]: 99 % of control
- T/C [3]: 90 % of control

SMILES: CN(C)c1ccc(/C=C/c2ccnc3ccc(Cl)cc23)cc1
- T/C [18]: 118 % of control

SMILES: CC12CCc3ccccc3C1=Nc1ccccc12 (stereo not drawn)
- T/C [10]: 103 % of control
- T/C [11]: 104 % of control
- T/C [17]: 91 % of control

SMILES: Clc1cc(Cl)c2c(c1)[nH]c1nc3ccccc3nc12
- T/C [19]: 101 % of control
- T/C [20]: 90 % of control
- T/C [10]: 96 % of control
- T/C [11]: 100 % of control
- T/C [17]: 104 % of control

SMILES: Cc1cccc(N=Cc2ccc(C=Nc3cccc(C)c3C)cc2)c1C
- T/C [21]: 92 % of control
- T/C [22]: 91 % of control
- T/C (dose: 200.0 mg/kg/injection, schedule: Q01DX009 (ip), vehicle: Klucel (hydroxypropylcellulose) (HPC)): 86 % of control

SMILES: S=C1N(c2ccc(Cl)cc2)C2=C(N=Nc3cc(Cl)ccc3Cl)C(=Nc3ccccc3S2)N1c1ccccn1
- T/C (dose: 15.0 mg/kg/injection, schedule: Q01DX005 (ip), vehicle: saline with Tween-80): 100 % of control
- T/C (dose: 30.0 mg/kg/injection, schedule: Q01DX005 (ip), vehicle: saline with Tween-80): 110 % of control
- T/C [1]: 106 % of control and 110 % of control

SMILES: O=c1oc(-c2ccc(Cl)cc2[N+](=O)[O-])nc2ccccc12
- T/C [13]: 108 % of control
- T/C [23]: 104 % of control
- T/C [24]: 100 % of control

SMILES: CC1CC2OC(=O)C3=C2C(CCC3)C12CC(c1ccoc1)OC2=O (stereo not drawn)
- T/C (dose: 12.5 mg/kg/injection, schedule: Q01DX009 (ip), vehicle: saline with Tween-80): 91 % of control
- T/C [18]: 91 % of control and 89 % of control
- T/C [7]: 93 % of control

SMILES: COc1cc2c[n+](C)c3c4cc(OC)c(OC)cc4c(OCc4ccccc4)cc3c2cc1OC
- T/C [19]: 123 % of control and 124 % of control
- T/C [20]: 124 % of control

SMILES: O=[N+]([O-])[O-].OCCNCCNCC[OH2+].OCCNCCNCC[OH2+].[Co+2]
- T/C [13]: 95 % of control
- T/C [23]: 104 % of control
- T/C [24]: 103 % of control

SMILES: Clc1ccc(OCC(Cn2ccnc2)c2ccc(Cl)cc2)cc1 (stereo not drawn)
- T/C [7]: 100 % of control
- T/C [8]: 100 % of control

SMILES: CN=C(N)N/N=C(/C)c1ccc2c(c1)Cc1cc(I)ccc1-2
- T/C (dose: 25.0 mg/kg/injection, schedule: Q04DX002 (ip), vehicle: saline with Tween-80): 106 % of control
- T/C (dose: 50.0 mg/kg/injection, schedule: Q04DX002 (ip), vehicle: saline with Tween-80): 100 % of control
- T/C (dose: 100.0 mg/kg/injection, schedule: Q04DX002 (ip), vehicle: saline with Tween-80): 107 % of control

SMILES: [Mn+2].[Mn+2].c1ccc2c(c1)-c1nc-2nc2[n-]c(nc3nc(nc4[n-]c(n1)c1ccccc41)-c1ccccc1-3)c1cc3c4nc5nc(nc6[n-]c(nc7nc(nc([n-]4)c3cc21)-c1ccccc1-7)c1ccccc61)-c1ccccc1-5
- T/C [1]: 96 % of control
- T/C [2]: 99 % of control
- T/C [3]: 106 % of control

SMILES: CN(c1ccccc1)c1nnnn1-c1ccccc1
- T/C (dose: 50.0 mg/kg/injection, schedule: Q04DX003 (ip), vehicle: saline with Tween-80): 95 % of control
- T/C (dose: 100.0 mg/kg/injection, schedule: Q04DX003 (ip), vehicle: saline with Tween-80): 104 % of control
- T/C (dose: 200.0 mg/kg/injection, schedule: Q04DX003 (ip), vehicle: saline with Tween-80): 111 % of control

SMILES: CCOc1ccc(N2CC(=O)N3CCCCN3C(=O)C2)cc1
- T/C [14]: 112 % of control
- T/C [15]: 103 % of control
- T/C [16]: 105 % of control

SMILES: O=C(N[C@H](CO)[C@H]1CC(Br)=NO1)C(Cl)(Cl)Cl
- T/C (dose: 11.25 mg/kg/injection, schedule: Q01DX005 (ip), vehicle: distilled water + Tween-80): 102 % of control
- T/C (dose: 22.5 mg/kg/injection, schedule: Q01DX005 (ip), vehicle: distilled water + Tween-80): 105 % of control
- T/C (dose: 45.0 mg/kg/injection, schedule: Q01DX005 (ip), vehicle: distilled water + Tween-80): 107 % of control
- T/C (dose: 90.0 mg/kg/injection, schedule: Q01DX005 (ip), vehicle: distilled water + Tween-80): 112 % of control

SMILES: O=C(O)c1cc(O)ccc1O
- T/C [12]: 104 % of control
- T/C [13]: 90 % of control
- T/C [23]: 97 % of control
- T/C [24]: 94 % of control

SMILES: N#CCc1nn(-c2ccccc2)c2ncnc(N)c12
- T/C (dose: 6.25 mg/kg/injection, schedule: Q01DX009 (ip), vehicle: Klucel (hydroxypropylcellulose) (HPC)): 103 % of control
- T/C (dose: 12.5 mg/kg/injection, schedule: Q01DX009 (ip), vehicle: Klucel (hydroxypropylcellulose) (HPC)): 100 % of control and 114 % of control and 94 % of control
- T/C (dose: 25.0 mg/kg/injection, schedule: Q01DX009 (ip), vehicle: Klucel (hydroxypropylcellulose) (HPC)): 108 % of control and 97 % of control (2×)
- T/C [21]: 100 % of control and 120 % of control and 98 % of control
- T/C [22]: 106 % of control

SMILES: Cc1cn(C)c2c1-c1oncc1CC2
- T/C [4]: 100 % of control
- T/C [5]: 100 % of control
- T/C [6]: 100 % of control
